In PMC10350928 (Journal of Medicinal Chemistry, 2023):
Like-named read-outs stand apart in the source and are kept apart here.

What was measured:
WT c-MET [1] = biological target: T1, WT c-MET (Homo sapiens, UniProt P08581); format: binding; details: Table 1; LLE = pKd – log D
Target sequence in this assay (P08581 25-1390): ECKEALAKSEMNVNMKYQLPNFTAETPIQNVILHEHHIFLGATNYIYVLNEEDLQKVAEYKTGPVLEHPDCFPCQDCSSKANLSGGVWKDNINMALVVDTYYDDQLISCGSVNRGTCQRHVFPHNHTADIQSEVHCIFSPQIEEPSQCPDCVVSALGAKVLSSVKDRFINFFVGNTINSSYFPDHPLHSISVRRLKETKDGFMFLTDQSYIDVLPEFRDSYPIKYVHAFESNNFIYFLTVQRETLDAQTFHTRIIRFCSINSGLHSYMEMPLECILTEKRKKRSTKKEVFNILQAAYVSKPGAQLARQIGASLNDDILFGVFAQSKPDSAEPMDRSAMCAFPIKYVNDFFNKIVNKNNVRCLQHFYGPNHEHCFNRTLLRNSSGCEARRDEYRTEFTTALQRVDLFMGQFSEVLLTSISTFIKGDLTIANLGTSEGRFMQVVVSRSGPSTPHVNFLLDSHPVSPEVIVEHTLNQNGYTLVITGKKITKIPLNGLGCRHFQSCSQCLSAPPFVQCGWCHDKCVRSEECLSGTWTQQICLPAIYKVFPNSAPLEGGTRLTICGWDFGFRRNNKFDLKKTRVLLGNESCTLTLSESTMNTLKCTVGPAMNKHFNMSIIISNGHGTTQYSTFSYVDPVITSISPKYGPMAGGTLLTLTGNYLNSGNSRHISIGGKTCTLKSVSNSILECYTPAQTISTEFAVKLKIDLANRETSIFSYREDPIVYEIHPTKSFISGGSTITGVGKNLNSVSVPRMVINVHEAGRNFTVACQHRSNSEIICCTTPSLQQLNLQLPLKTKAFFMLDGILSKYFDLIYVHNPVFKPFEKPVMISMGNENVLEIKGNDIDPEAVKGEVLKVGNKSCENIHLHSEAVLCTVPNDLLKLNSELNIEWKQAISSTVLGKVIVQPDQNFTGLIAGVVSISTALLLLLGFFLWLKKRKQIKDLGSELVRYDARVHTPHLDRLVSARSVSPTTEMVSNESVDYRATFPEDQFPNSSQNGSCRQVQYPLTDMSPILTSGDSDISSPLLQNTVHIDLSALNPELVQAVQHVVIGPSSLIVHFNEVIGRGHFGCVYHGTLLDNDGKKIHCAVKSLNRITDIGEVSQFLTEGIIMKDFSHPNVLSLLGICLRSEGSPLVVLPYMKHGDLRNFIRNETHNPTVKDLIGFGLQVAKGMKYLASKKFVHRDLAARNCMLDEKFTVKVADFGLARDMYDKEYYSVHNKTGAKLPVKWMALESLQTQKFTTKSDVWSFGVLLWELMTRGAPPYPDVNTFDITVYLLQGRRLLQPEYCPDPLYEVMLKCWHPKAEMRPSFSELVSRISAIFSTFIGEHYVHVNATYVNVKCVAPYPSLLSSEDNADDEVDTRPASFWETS

WT c-MET [2] = biological target: T1, WT c-MET; format: binding; details: adenosine 500 μM, WT c-MET 7.4 μM, compound 100 μM
Target sequence in this assay (P08581 1038-1348): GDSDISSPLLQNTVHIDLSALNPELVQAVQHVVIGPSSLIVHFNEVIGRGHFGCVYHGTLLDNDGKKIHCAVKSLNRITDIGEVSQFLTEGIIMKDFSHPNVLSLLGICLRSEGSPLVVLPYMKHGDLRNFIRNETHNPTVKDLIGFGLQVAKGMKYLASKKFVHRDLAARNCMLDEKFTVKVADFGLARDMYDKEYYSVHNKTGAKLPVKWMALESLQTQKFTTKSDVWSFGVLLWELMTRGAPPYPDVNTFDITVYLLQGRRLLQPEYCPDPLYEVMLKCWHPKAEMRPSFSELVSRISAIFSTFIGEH

Rat hepatocytes = experiment: Rat hepatocyte Clint; details: for RH: rat hepatocytes; for Hepatocytes Rat: Table 4
WT c-MET [3] = biological target: T1, WT c-MET; format: biochemical; details: LLE = pIC50 – log D
Target sequence in this assay (P08581 25-1390): as the sequence (P08581 25-1390) above

Human hepatocytes = experiment: Human hepatocyte Clint; details: Table 4
[4] = Rat plasma pharmacokinetics; details: male, Han Wistar, iv, 0.5 mg/kg
[5] = Human liver microsome Clint
c-MET = details: read-out: cell IC50 c-MET; cited from earlier work
RON = details: read-out: cell IC50 RON; cited from earlier work
[6] = Table 3, human liver microsomes

## CC(c1ccccc1)n1cc(-c2cc(F)cc(F)c2)c(=O)[nH]c1=O (centres unmarked) [Compound 2, 5-(3,5-Difluorophenyl)-1-(1-phenylethyl)pyrimidine-2,4(1H,3H)-dione]
WT c-MET [1]
  SPR assay LLE WT: 2.4
WT c-MET [2]
  competition with adenosine for binding to WT c-MET: clear competition
Rat hepatocytes; Table 1
  RH: 123 μL/min/10^6 cells

## C[C@@H](c1ccccc1)n1cc(-c2cc(F)cc(F)c2)c(=O)[nH]c1=O [Compound 3, (S)-5-(3,5-Difluorophenyl)-1-(1-phenylethyl)pyrimidine-2,4(1H,3H)-dione]
WT c-MET [1]
  SPR assay LLE WT: 2.9
Rat hepatocytes; Table 1
  RH: 133 μL/min/10^6 cells

## O=c1[nH]c(=O)n(Cc2ccccc2)cc1-c1cc(F)cc(F)c1 [Compound 4, 1-Benzyl-5-(3,5-difluorophenyl)pyrimidine-2,4(1H,3H)-dione]
WT c-MET [1]
  SPR assay LLE WT: <1.0/<1.0
Rat hepatocytes; Table 1
  RH: 76.7 μL/min/10^6 cells

## CC(c1ccccc1Cl)n1cc(-c2cc(F)cc(F)c2)c(=O)[nH]c1=O (centres unmarked) [Compound 5, 1-(1-(2-Chlorophenyl)ethyl)-5-(3,5-difluorophenyl)pyrimidine-2,4(1H,3H)-dione]
WT c-MET [1]
  SPR assay LLE WT: 0.82
Rat hepatocytes; Table 1
  RH: 227 μL/min/10^6 cells

## CC(c1cccc(Cl)c1)n1cc(-c2cc(F)cc(F)c2)c(=O)[nH]c1=O (centres unmarked) [Compound 7, 1-(1-(3-Chlorophenyl)ethyl)-5-(3,5-difluorophenyl)pyrimidine-2,4(1H,3H)-dione]
WT c-MET [1]
  SPR assay LLE WT: 2.2
Rat hepatocytes; Table 1
  RH: 177 μL/min/10^6 cells

## CC(c1cccc(-c2cc[nH]n2)c1)n1cc(-c2cc(F)cc(F)c2)c(=O)[nH]c1=O (centres unmarked) [Compound 8, 1-(1-(3-(1H-Pyrazol-3-yl)phenyl)ethyl)-5-(3,5-difluorophenyl)pyrimidine-2,4(1H,3H)-dione]
WT c-MET [1]
  SPR assay LLE WT: 2.1
Rat hepatocytes; Table 1
  RH: 24.7 μL/min/10^6 cells

## CC(c1cccc(-c2cn[nH]c2)c1)n1cc(-c2cc(F)cc(F)c2)c(=O)[nH]c1=O (centres unmarked) [Compound 9, 1-(1-(3-(1H-Pyrazol-4-yl)phenyl)ethyl)-5-(3,5-difluorophenyl)pyrimidine-2,4(1H,3H)-dione]
WT c-MET [1]
  SPR assay LLE WT: 2.7
Rat hepatocytes; Table 1
  RH: 22.3 μL/min/10^6 cells

## CC(c1cccc(-c2c[nH]cn2)c1)n1cc(-c2cc(F)cc(F)c2)c(=O)[nH]c1=O (centres unmarked) [Compound 10, 1-(1-(3-(1H-Imidazol-5-yl)phenyl)ethyl)-5-(3,5-difluorophenyl)pyrimidine-2,4(1H,3H)-dione]
WT c-MET [1]
  SPR assay LLE WT: 3.1
Rat hepatocytes; Table 1
  RH: 6.03 μL/min/10^6 cells

## CC(c1ccccc1)n1cc(-c2ccccc2)c(=O)[nH]c1=O (centres unmarked) [Compound 11, 5-Phenyl-1-(1-phenylethyl)pyrimidine-2,4(1H,3H)-dione]
Rat hepatocytes; Table 1
  RH: 185 μL/min/10^6 cells

## CC(c1ccccc1)n1cc(-c2ccccn2)c(=O)[nH]c1=O (centres unmarked) [Compound 12, 1-(1-Phenylethyl)-5-(pyridin-2-yl)pyrimidine-2,4(1H,3H)-dione]
WT c-MET [1]
  SPR assay LLE WT: 3.2
Rat hepatocytes; Table 1
  RH: 300 μL/min/10^6 cells

## CC(c1ccccc1)n1cc(-c2ncccn2)c(=O)[nH]c1=O (centres unmarked) [Compound 13, 1′-(1-Phenylethyl)-[2,5′-bipyrimidine]-2′,4′(1′H,3′H)-dione]
Rat hepatocytes; Table 1
  RH: 4.67 μL/min/10^6 cells

## CC(c1ccccc1)n1cc(-c2ccc3[nH]ccc3c2)c(=O)[nH]c1=O (centres unmarked) [Compound 14, 5-(1H-Indol-5-yl)-1-(1-phenylethyl)pyrimidine-2,4(1H,3H)-dione]
WT c-MET [1]
  SPR assay LLE WT: 3.4/3.4
Rat hepatocytes; Table 1
  RH: 217 μL/min/10^6 cells

## CC(c1ccccc1)n1cc(-c2cccc3cn[nH]c23)c(=O)[nH]c1=O (centres unmarked) [Compound 15, 5-(1H-Indazol-7-yl)-1-(1-phenylethyl)pyrimidine-2,4(1H,3H)-dione]
WT c-MET [1]
  SPR assay LLE WT: 4.2
WT c-MET [3]; Table 2
  ADP-Glo assay LLE WT: 3.5
Rat hepatocytes; Table 1
  RH: 46.1 μL/min/10^6 cells

## CC(c1cccc(-c2c[nH]cn2)c1)n1cc(-c2cccc3cn[nH]c23)c(=O)[nH]c1=O (centres unmarked) [Compound 16, 1-(1-(3-(1H-Imidazol-5-yl)phenyl)ethyl)-5-(1H-indazol-7-yl)pyrimidine-2,4(1H,3H)-dione]
WT c-MET [1]
  SPR assay LLE WT: 4.1
Rat hepatocytes; Table 1
  RH: 5.84 μL/min/10^6 cells

## CC(c1ccccc1)n1cc(-c2cccc3c(F)n[nH]c23)c(=O)[nH]c1=O (centres unmarked) [Compound 17, 5-(3-Fluoro-1H-indazol-7-yl)-1-(1-phenylethyl)pyrimidine-2,4(1H,3H)-dione]
WT c-MET [3]; Table 2
  ADP-Glo assay LLE WT: 3.1
Rat hepatocytes; Table 2
  RH: 49.4 μL/min/10^6 cells

## Cc1n[nH]c2c(-c3cn(C(C)c4ccccc4)c(=O)[nH]c3=O)cccc12 (centres unmarked) [Compound 18, 5-(3-Methyl-1H-indazol-7-yl)-1-(1-phenylethyl)pyrimidine-2,4(1H,3H)-dione]
WT c-MET [3]; Table 2
  ADP-Glo assay LLE WT: 3.6
Rat hepatocytes; Table 2
  RH: 37.0 μL/min/10^6 cells

## CC(c1ccccc1)n1cc(-c2cccc3c(C#N)n[nH]c23)c(=O)[nH]c1=O (centres unmarked) [Compound 19, 7-(2,4-Dioxo-1-(1-phenylethyl)-1,2,3,4-tetrahydropyrimidin-5-yl)-1H-indazole-3-carbonitrile]
WT c-MET [3]; Table 2
  ADP-Glo assay LLE WT: 3.4
Rat hepatocytes; Table 2
  RH: 41.4 μL/min/10^6 cells

## CC(c1ccccc1)n1cc(-c2c(F)ccc3cn[nH]c23)c(=O)[nH]c1=O (centres unmarked) [Compound 20, 5-(6-Fluoro-1H-indazol-7-yl)-1-(1-phenylethyl)pyrimidine-2,4(1H,3H)-dione]
WT c-MET [3]; Table 2
  ADP-Glo assay LLE WT: 3.2
Rat hepatocytes; Table 2
  RH: 28.3 μL/min/10^6 cells

## CC(c1ccccc1)n1cc(-c2cc(F)cc3cn[nH]c23)c(=O)[nH]c1=O (centres unmarked) [Compound 21, 5-(5-Fluoro-1H-indazol-7-yl)-1-(1-phenylethyl)pyrimidine-2,4(1H,3H)-dione]
WT c-MET [3]; Table 2
  ADP-Glo assay LLE WT: 3.9
Rat hepatocytes; Table 2
  RH: 14.0 μL/min/10^6 cells

## CC(c1ccccc1)n1cc(-c2cc(F)cc3c(C#N)n[nH]c23)c(=O)[nH]c1=O (centres unmarked) [Compound 22, 7-(2,4-Dioxo-1-(1-phenylethyl)-1,2,3,4-tetrahydropyrimidin-5-yl)-5-fluoro-1H-indazole-3-carbonitrile]
WT c-MET [3]; Table 2
  ADP-Glo assay LLE WT: 3.8
Rat hepatocytes; Table 2
  RH: 51.4 μL/min/10^6 cells

## CC(c1ccccn1)n1cc(-c2cc(F)cc3c(C#N)n[nH]c23)c(=O)[nH]c1=O (centres unmarked) [Compound 23, 7-(2,4-Dioxo-1-(1-(pyridin-2-yl)ethyl)-1,2,3,4-tetrahydropyrimidin-5-yl)-5-fluoro-1H-indazole-3-carbonitrile]
WT c-MET [3]; Table 3
  ADP-Glo assay LLE WT: 3.8
Rat hepatocytes; Table 3
  RH: 3.08 μL/min/10^6 cells

## CC(c1ccc(F)cc1)n1cc(-c2cc(F)cc3c(C#N)n[nH]c23)c(=O)[nH]c1=O (centres unmarked) [Compound 24, 5-Fluoro-7-(1-(1-(4-fluorophenyl)ethyl)-2,4-dioxo-1,2,3,4-tetrahydropyrimidin-5-yl)-1H-indazole-3-carbonitrile]
WT c-MET [3]; Table 3
  ADP-Glo assay LLE WT: 3.4
Rat hepatocytes; Table 3
  RH: 4.40 μL/min/10^6 cells

## C[C@@H](c1ccc(F)cc1)n1cc(-c2cc(F)cc3c(C#N)n[nH]c23)c(=O)[nH]c1=O [Compound 25, (S)-5-Fluoro-7-(1-(1-(4-fluorophenyl)ethyl)-2,4-dioxo-1,2,3,4-tetrahydropyrimidin-5-yl)-1H-indazole-3-carbonitrile]
WT c-MET [3]; Table 3
  ADP-Glo assay LLE WT: 3.8
Rat hepatocytes; Table 3
  RH: 5.13 μL/min/10^6 cells
Rat hepatocytes
  Hepatocytes Rat: 5.13 μL/min/10^6 cells
Human hepatocytes
  Hepatocytes Human: 2.48 μL/min/10^6 cells
[4]
  clearance: 3 mL/min/kg

## CC(c1ccc(F)cc1)n1cc(-c2cc(F)cc3cn[nH]c23)c(=O)[nH]c1=O (centres unmarked) [Compound 26, 5-(5-Fluoro-1H-indazol-7-yl)-1-(1-(4-fluorophenyl)ethyl)pyrimidine-2,4(1H,3H)-dione]
WT c-MET [3]; Table 3
  ADP-Glo assay LLE WT: 3.5
Rat hepatocytes; Table 3
  RH: 11.9 μL/min/10^6 cells

## C#Cc1n[nH]c2c(-c3cn(C(C)c4ccccc4)c(=O)[nH]c3=O)cccc12 (centres unmarked) [Compound 28, 5-(3-Ethynyl-1H-indazol-7-yl)-1-(1-phenylethyl)pyrimidine-2,4(1H,3H)-dione]
WT c-MET [3]; Table 3
  ADP-Glo assay LLE WT: 4.2
Rat hepatocytes; Table 3
  RH: 9.10 μL/min/10^6 cells

## C#Cc1n[nH]c2c(-c3cn(C(C)c4ccccc4)c(=O)[nH]c3=O)cc(F)cc12 (centres unmarked) [Compound 29, 5-(3-Ethynyl-5-fluoro-1H-indazol-7-yl)-1-(1-phenylethyl)pyrimidine-2,4(1H,3H)-dione]
Rat hepatocytes; Table 3
  RH: 5.99 μL/min/10^6 cells
Rat hepatocytes
  Hepatocytes Rat: 5.99 μL/min/10^6 cells
Human hepatocytes
  Hepatocytes Human: 4.27 μL/min/10^6 cells
[5]; [6]
  HLM: 12.2 µL/min/mg
[5]; Table 4
  HLM: 12.2 µL/min/mg
[4]
  clearance: 60 mL/min/kg

## C#Cc1n[nH]c2c(-c3cn([C@@H](C)c4ccccc4)c(=O)[nH]c3=O)cc(F)cc12 [Compound 30, (S)-5-(3-Ethynyl-5-fluoro-1H-indazol-7-yl)-1-(1-phenylethyl)pyrimidine-2,4(1H,3H)-dione]
Rat hepatocytes; Table 3
  RH: 15.0 μL/min/10^6 cells

## C#Cc1n[nH]c2c(-c3cn(C(C)c4ccccn4)c(=O)[nH]c3=O)cc(F)cc12 (centres unmarked) [Compound 31, 5-(3-Ethynyl-5-fluoro-1H-indazol-7-yl)-1-(1-(pyridin-2-yl)ethyl)pyrimidine-2,4(1H,3H)-dione]
WT c-MET [3]; Table 3
  ADP-Glo assay LLE WT: 4.8
Rat hepatocytes; Table 3
  RH: 4.81 μL/min/10^6 cells
Rat hepatocytes
  Hepatocytes Rat: 4.81 μL/min/10^6 cells
Human hepatocytes
  Hepatocytes Human: 1.29 μL/min/10^6 cells
[5]; [6]
  HLM: <3.00 µL/min/mg
[5]; Table 4
  HLM: <3.00 µL/min/mg
[4]
  clearance: 13 mL/min/kg

## C#Cc1n[nH]c2c(-c3cn([C@@H](C)c4ccccn4)c(=O)[nH]c3=O)cc(F)cc12 [Compound 32, (S)-5-(3-Ethynyl-5-fluoro-1H-indazol-7-yl)-1-(1-(pyridin-2-yl)ethyl)pyrimidine-2,4(1H,3H)-dione]
WT c-MET [3]; Table 3
  ADP-Glo assay LLE WT: 5.1
Rat hepatocytes; Table 3
  RH: 6.07 μL/min/10^6 cells
